According to a melting point compilation (Tetko et al.; mined from patent text by program, amines drawn as free bases though some values may be those of a salt):

SMILES	melting point [°C]
CCCCCCCCCCCCCCC(=O)Oc1ccc2cc(C(=N)N)ccc2c1	153
COC1(c2ccccc2)N=CC(=O)N(C)c2ccc(Cl)cc21 (stereo unspecified)	146 to 147
CN1CCC(c2c[nH]c3ccc(O)cc23)CC1	234 to 237
O=CN1CCN(Cc2nc3ccccc3[nH]2)CC1	194 to 198
CC(C)(C)OC(=O)CN1CC(c2cccs2)SCC(N2C(=O)c3ccccc3C2=O)C1=O (stereo unspecified)	151 to 152
CCCCCCCCCCCCc1nnn(CC(=O)Nc2ccc(F)cc2F)n1	103 to 106
CCOC(=O)C(C)N1c2ccccc2Sc2ccc(C#N)cc21 (racemic)	117 to 118
CCOC(=O)c1c(O)n(C)c2cc(-c3ccncc3)ccc2c1=O	184
CCCCNC(=O)c1cc(C(C)(C)C)c(O)c(C(C)(C)C)c1	181 to 183
CCOc1ccc(C2=NN(C3CCOCC3)C(=O)[C@H]3CC=CC[C@@H]23)cc1OCC (relative stereo)	127 to 129
Cc1cc(-c2nnn(C)n2)cc(C)c1OCCCCc1cc2cccnc2[nH]1	147 to 150
CC(=O)Nc1ccc([N+](=O)[O-])s1	226
BrCc1cc2ccc3ccccc3c2s1	75 to 78
CN1C[C@@H](C(=O)OC(C)(C)C)N(C(=O)OCc2ccccc2)C1=O	102 to 103
Cc1cn(C2CCN(c3c(F)c(C)c4c(=O)c(C(=O)O)cn(C5CC5)c4c3F)C2)nn1 (stereo unspecified)	232 to 234
CCCCCC(CC(=O)Nc1cc(C(N)=O)ccc1C(C)(C)C)c1ccc(C(O)CCC)cc1OC (stereo unspecified)	153 to 155
C[C@H]1C(=O)N[C@@H](Cc2c[nH]c3ccccc23)C(=O)N1OCc1ccccc1	172 to 174
C[C@H](NC(=O)c1cc(Cl)cnc1Oc1ccc(F)cc1)c1ccc(C(=O)O)cc1	198
CCOC(=O)c1csc2cc(Oc3cc(Cl)nc(N)n3)ccc12	178 to 179
COc1cc(N(C)C)nc(N2CCN(Cc3ccc(CNC(C)=O)cc3)CC2)n1	115 to 118
CNC(=NC#N)NCCCCCc1csc(NC(=N)N)n1	109 to 113
Cn1ncc2cc(/C=C/c3ccc(O)cc3)ccc2c1=O	223 to 225
O=c1ccc2ccc(OCCCCN3CCCN(c4cccc(Cl)c4Cl)CC3)cc2[nH]1	55 to 57
CC(C)(C)C=CC1=C(O)C(=O)c2ccccc2C1=O	126 to 128
Cc1c(/C=C/c2ccccc2)nc2ccc(C(=O)O)cn2c1=O	312 to 313
COc1ccc(C(=O)Nc2c(Cl)cncc2Cl)c2c1OC(C)C2C(=O)C1NCCc2ccccc21 (stereo unspecified)	211 to 213

SMILES	melting point [°C]
CNC(=O)c1ccccc1Nc1nc(Nc2ccc3c(c2)NC(=O)CCC3)ncc1Cl	293 to 295
CC(=O)OCc1ccc(C#Cc2ccc3c(c2)C(C)(C)CCC3(C)C)cc1	136 to 139
COC1Nc2c(ccc(C)c2O)C(=O)N2CCCC12 (stereo unspecified)	152 to 156
COC(=O)c1cc(C(=O)NCC(N)=O)c2cc(Cc3ccc(F)cc3)cnc2c1O	247 to 248
CC(C)c1cc(C(=O)CON2C(=O)c3ccccc3C2=O)cc(C(C)C)c1O	136 to 139
OC(CCc1cccnc1)CSc1ccc2ccccc2c1 (stereo unspecified)	90 to 92
COc1ccccc1COc1ccc(S(=O)(=O)c2ccc(C)nc2Nc2ccc(OC(F)F)cc2Cl)cc1	124 to 125
CCOC(=O)COc1ccc(SCc2ccnc3[nH]c(-c4ccc(C(F)(F)F)cc4)nc23)cc1C	239 to 241
N#Cc1ccc(CN(N)c2ccc(Br)cc2)cc1	114
COC1=C(OC)C(=O)c2c(N)cccc2C1=O	116 to 117
CC1Cc2ccccc2C(C(S)(C#N)C(=O)O)=N1 (stereo unspecified)	159 to 160
Cc1scc2c1N(C(=O)N1CCC(CCCCN3CCCCC3)CC1)c1ccccc1NC2=O	209 to 210
Cc1nc(-c2ccc(CCC3(O)CN4CCC3CC4)cc2)no1 (stereo unspecified)	165 to 167
CCCCNC(=O)NS(=O)(=O)c1ccccc1S(=O)(=O)C(C)C	164 to 166
CCOC(=O)C1=C(C)N=C(N)C(Cc2ccccc2)(C(=O)OCC)C1c1cccc([N+](=O)[O-])c1 (stereo unspecified)	208
CCOC(=O)c1ccc2[nH]ccc2c1	94 to 95
COC(=O)C1Oc2ccc(Cl)cc2C(c2ccccc2)(C2CCCCC2)O1 (stereo unspecified)	142
O=C(O)C(Sc1nc2c(s1)CCCC2)c1ccccc1 (stereo unspecified)	118 to 120
CC/C(=C\C=C\C(O)(C(F)(F)F)C(F)(F)F)c1ccc(COc2ccc(CO)c(CO)c2)s1	113 to 114
O=C(OC(C(F)(F)F)C(F)(F)F)c1c2ccccc2nc2ccccc12	143 to 145
CN(c1cccc2cc(C3=NCC(C(C)(C)O)S3)[nH]c12)S(=O)(=O)c1cccs1 (stereo unspecified)	174 to 175
CC(C)Oc1c(C(=O)NCc2ccccc2)oc2ccc(Cl)cc12	80 to 82
CC(C)N=CN1c2ccccc2Cc2ccccc21	150
COC(=O)COc1cccc(CN(C)c2cnc(-c3ccccc3)c(-c3ccccc3)n2)c1	132 to 134
CCCCCC(=S)SCCC	55 to 56
Cc1cc(Oc2ccccc2)nc2ccccc12	101

SMILES	melting point [°C]
Nc1c(C(=O)Nc2nnn[nH]2)oc2ccccc12	185
CN1Cc2c(Cl)ncn2-c2ccccc2C1=O	193 to 194
CN(C)c1ccc(-c2[nH]nc3c2C(=O)c2c(NC(=O)CN4CCOCC4)cccc2-3)cc1	> 300
Nc1c(C(=O)O)cccc1-c1ccc(CCc2ccc(Cl)c(C(F)(F)F)c2)cc1	150 to 152
CCCCCOc1ccc(C(=O)OC(C)C(C)OC(=O)c2ccc(OCCCCC)cc2)cc1 (stereo unspecified)	52
c1ccc(C2=Nc3ccccc3OC2)cc1	108 to 111
O=C(COCC(=O)Nc1ccc([N+](=O)[O-])c(C(F)(F)F)c1)Nc1ccc([N+](=O)[O-])c(C(F)(F)F)c1	137 to 138
CN1C(=O)CCC2(C)c3ccc(Sc4cccc5ccccc45)cc3CCC12 (single isomer, unassigned; (+))	161 to 162
NCC1(O)c2ccccc2CCc2ccccc21	147 to 149
O=C(CNc1ccccc1F)Nc1ccc(O)cc1	143 to 146
S=C1N=c2ccc(OCCN3CCC(Cc4ccccc4)CC3)cc2=N1	273 to 275
CCCOc1cc(Cl)ccc1-c1nc2ncn(C)c(=S)n2n1	160 to 162
CCCCCCCc1cnc(-c2ccc(OCC(F)CCCCCC)c(F)c2F)nc1 (stereo unspecified)	56
O=C(NCC1(c2nc(C3CC3)cs2)CC1)c1ccccc1C(F)(F)F	83.4 to 84.2
CCC1CC(=O)N(Cc2ccc(NC(=O)C(C)C)cc2)N=C1c1ccc(OC)c(OC)c1 (stereo unspecified)	144
C=C1CC2C(CCC3(C)C2CCC3(O)C(C)=O)C2(C)CCC(=O)C=C12 (stereo unspecified)	218 to 220
CS(=O)(=O)N(CCc1ccccc1)CC(O)(Cn1cncn1)c1ccc(Cl)cc1Cl (stereo unspecified)	138 to 140
N#Cc1cccc(N2C(=O)CC(=O)Nc3c2ccc2c3CCC2)c1	250 to 251
N#Cc1ccc(C(=O)NC2CCCNC(=O)C2)cc1 (stereo unspecified)	189 to 190
O=C(O)Cc1ccc(OCCCCl)cc1	89 to 91
CCOC(=O)[C@H](Cc1ccc(O)cc1)NC(=O)c1c(F)cccc1Cl	144 to 145
O=C(Nc1ccc(F)cc1)c1ccccc1C(c1ccc(O)cc1)c1ccc(O)cc1	122 to 124
CC(C)(C)OC(=O)Nc1ccc(C#Cc2ccc(Cl)cc2)cc1[N+](=O)[O-]	213 to 218
N#Cc1ccc(N2C(=O)N(CCCCO)C3(CCCCC3)C2=O)cc1C(F)(F)F	145
CN(c1ccnc(Cl)n1)n1cccc1	102 to 103
CCOC(=O)CC(O)CC(O)C=Cc1c(C(C)C)sc(-c2ccccc2)c1-c1ccc(F)cc1 (stereo unspecified)	123 to 125

SMILES	melting point [°C]
C=CCn1cc(C(O)(c2ccc3c(cnn3C(=O)NCC)c2)C(F)(F)F)c2ccccc21 (stereo unspecified)	162 to 164
CCCCN(CCCC)CCCOc1ccc(S(=O)(=O)c2cn[nH]c2C(C)C)cc1	53
CCOC(=O)[C@H](CSCCc1ccccc1)NC(=O)C(CSC(C)=O)Cc1ccccc1 (stereo partly specified)	63 to 64
CC(C)(Oc1ccc(CCNC(=O)C=Cc2ccccc2Cl)cc1)C(=O)O	145 to 146
C=CCCCCCCCCOC(=O)C=Cc1ccccc1O	58
N#Cc1cccnc1N1CCN(CC(=O)Nc2ccccc2C(F)(F)F)CC1	143 to 145
COc1cc(CNC(=O)c2oc(=O)c3ncccc3c2-c2ccc(C)cc2)cc(OC)c1	154 to 155
N#CC1CN1C(=O)NC(=O)c1ccc2c(c1)CCCC2 (stereo unspecified)	166 to 168
CCOc1cc(CC)ccc1C1CCN(CCCCNC(=O)c2ccc(-c3ccc(S(C)(=O)=O)cc3)cc2)CC1	179 to 180
OC12CCCC1N=C(S)N2c1ccccn1 (stereo unspecified)	126 to 127
COC1OC(=O)CC(C)(C)C1O (stereo unspecified)	72
CCOC(=O)Cn1c(C(=O)OCC)c2c(c1C(=O)OCC)OCCCO2	140
Cc1ccc2oc(S(=O)(=O)c3ccc(=O)[nH]n3)c(C)c2c1	246 to 247
OCCN1CCN(c2cc(Cl)nnc2Cl)CC1	139 to 141
O=C(C1CC1)N1CCCc2oc(-c3ccccc3)cc2C1	108 to 110
O=C(OCC1CO1)c1c(Br)c(Br)c(C(=O)OCC2CO2)c(Br)c1Br (stereo unspecified)	161
Clc1ncnc2oc(-c3ccccc3)cc12	136 to 138
O=C(CC(NC(=O)C(F)(F)F)C(=O)O)c1ccc2c(c1)CCO2 (stereo unspecified)	160 to 162
Nc1nc2ccccc2c2c1ncn2CCOC/C=C/c1ccccc1	184
CCOc1ccc(C2(C(=O)O)CCC2)cc1	90 to 91
Cc1ccc(S(=O)(=O)Nc2ccc(F)cc2[N+](=O)[O-])cc1	118
O=C1NC(CCc2cc(C(F)(F)F)cc(C(F)(F)F)c2)C(Cc2c[nH]c3ccccc23)N1 (stereo unspecified)	194 to 195
CCCC(CCC)(CCC)NC(=O)N(C)C	88
